According to ChEMBL document CHEMBL5465560, “Selectivity Literature for EUbOPEN Chemogenomic Library” (2024):

What was measured:
[1] = test system: Mast/stem cell growth factor receptor Kit (Homo sapiens), P10721 [V559D]; assay: (§1) Selectivity interaction (KinomeScan (DiscoverX)) EUB0001079a KIT; conditions: at 1 µM
[2] = target: Mast/stem cell growth factor receptor Kit (Homo sapiens, UniProt P10721); assay: as §1; conditions: at 1 µM
[3] = test system: Mast/stem cell growth factor receptor Kit (Homo sapiens), P10721 [V559D,V654A]; assay: as §1; conditions: at 1 µM
[4] = test system: Mast/stem cell growth factor receptor Kit (Homo sapiens), P10721 [D816V]; assay: as §1; conditions: at 1 µM
[5] = test system: Mast/stem cell growth factor receptor Kit (Homo sapiens), P10721 [A829P]; assay: as §1; conditions: at 1 µM
[6] = test system: Mast/stem cell growth factor receptor Kit (Homo sapiens), P10721 [L576P]; assay: as §1; conditions: at 1 µM
[7] = test system: Mast/stem cell growth factor receptor Kit (Homo sapiens), P10721 [V559D,T670I]; assay: as §1; conditions: at 1 µM
[8] = test system: Mast/stem cell growth factor receptor Kit (Homo sapiens), P10721 [D816H]; assay: as §1; conditions: at 1 µM
[9] = target: T1, Membrane-associated tyrosine- and threonine-specific cdc2-inhibitory kinase (Homo sapiens) (UniProt Q99640); assay: Selectivity interaction (Kinase panel (DSF assay)) EUB0001559a PKMYT1
T1 sequence (whole entry): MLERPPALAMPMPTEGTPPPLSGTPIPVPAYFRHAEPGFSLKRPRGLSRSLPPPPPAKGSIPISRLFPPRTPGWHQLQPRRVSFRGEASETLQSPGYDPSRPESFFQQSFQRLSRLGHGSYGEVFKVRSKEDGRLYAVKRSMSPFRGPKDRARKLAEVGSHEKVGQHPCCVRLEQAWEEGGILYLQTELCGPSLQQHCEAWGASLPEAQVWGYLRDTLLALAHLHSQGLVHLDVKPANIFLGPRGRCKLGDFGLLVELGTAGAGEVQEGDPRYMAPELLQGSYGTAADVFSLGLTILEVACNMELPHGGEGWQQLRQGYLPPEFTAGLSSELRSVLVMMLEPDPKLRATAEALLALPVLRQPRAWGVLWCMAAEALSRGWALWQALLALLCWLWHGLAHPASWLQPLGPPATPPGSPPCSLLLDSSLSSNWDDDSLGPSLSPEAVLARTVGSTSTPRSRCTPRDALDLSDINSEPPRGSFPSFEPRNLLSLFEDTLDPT

[10] = target: Tyrosine-protein kinase CSK (Homo sapiens) (UniProt P41240); assay: Selectivity interaction (ActivX KiNativ screen (kinase selectivity in THP-1 cell lysates)) EUB0000639a CSK; assay type: subcellular; conditions: lysate, at 0.01 µM
[11] = target: T2, Tyrosine-protein kinase receptor TYRO3 (Homo sapiens) (UniProt Q06418); assay: Selectivity interaction (Kinase panel (Invitrogen)) EUB0000639a TYRO3; conditions: at 200 nM
T2 sequence (whole entry): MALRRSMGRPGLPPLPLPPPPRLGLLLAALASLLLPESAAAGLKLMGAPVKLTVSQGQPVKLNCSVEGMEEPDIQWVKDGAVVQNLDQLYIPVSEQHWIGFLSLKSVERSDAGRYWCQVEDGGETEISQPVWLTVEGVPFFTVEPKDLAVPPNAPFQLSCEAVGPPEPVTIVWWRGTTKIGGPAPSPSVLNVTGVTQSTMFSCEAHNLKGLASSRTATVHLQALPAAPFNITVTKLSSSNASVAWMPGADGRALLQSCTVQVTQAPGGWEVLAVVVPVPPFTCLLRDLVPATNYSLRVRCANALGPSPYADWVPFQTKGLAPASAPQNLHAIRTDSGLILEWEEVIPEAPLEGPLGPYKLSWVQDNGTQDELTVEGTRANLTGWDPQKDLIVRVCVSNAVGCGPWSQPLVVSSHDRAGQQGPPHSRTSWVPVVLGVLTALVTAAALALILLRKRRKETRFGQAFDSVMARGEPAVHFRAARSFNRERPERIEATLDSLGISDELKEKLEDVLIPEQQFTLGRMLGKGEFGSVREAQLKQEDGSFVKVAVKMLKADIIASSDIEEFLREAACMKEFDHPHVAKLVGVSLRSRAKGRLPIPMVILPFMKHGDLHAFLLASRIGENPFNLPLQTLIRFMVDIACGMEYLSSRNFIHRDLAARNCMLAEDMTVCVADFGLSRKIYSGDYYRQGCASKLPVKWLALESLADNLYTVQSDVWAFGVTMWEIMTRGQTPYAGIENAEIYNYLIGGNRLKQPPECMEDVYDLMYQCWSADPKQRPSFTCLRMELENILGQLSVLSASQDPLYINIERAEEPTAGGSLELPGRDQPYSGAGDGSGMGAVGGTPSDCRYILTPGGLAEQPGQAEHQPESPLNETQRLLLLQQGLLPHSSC

[12] = target: T3, Tyrosine-protein kinase ZAP-70 (Homo sapiens) (UniProt P43403); assay: Selectivity interaction (KinomeScan (DiscoverX)) EUB0000092b ZAP70; conditions: at 10 µM
T3 sequence (whole entry): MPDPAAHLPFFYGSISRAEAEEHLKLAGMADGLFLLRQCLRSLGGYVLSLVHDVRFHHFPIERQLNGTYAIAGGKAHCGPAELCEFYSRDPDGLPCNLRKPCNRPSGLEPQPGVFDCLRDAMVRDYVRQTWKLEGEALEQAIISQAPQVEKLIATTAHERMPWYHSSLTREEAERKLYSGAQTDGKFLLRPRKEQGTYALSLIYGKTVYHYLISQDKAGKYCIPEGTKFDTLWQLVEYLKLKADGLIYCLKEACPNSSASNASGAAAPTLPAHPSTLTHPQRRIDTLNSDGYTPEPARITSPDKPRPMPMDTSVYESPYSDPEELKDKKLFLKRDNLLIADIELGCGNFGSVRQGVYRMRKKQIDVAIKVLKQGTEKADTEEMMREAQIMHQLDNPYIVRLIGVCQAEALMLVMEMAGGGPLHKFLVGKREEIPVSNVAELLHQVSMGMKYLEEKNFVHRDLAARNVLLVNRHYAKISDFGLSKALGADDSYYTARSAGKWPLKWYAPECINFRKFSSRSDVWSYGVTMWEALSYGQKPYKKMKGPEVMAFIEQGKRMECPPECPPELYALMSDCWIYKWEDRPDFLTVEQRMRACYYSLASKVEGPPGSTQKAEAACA

[13] = target: NT-3 growth factor receptor (Homo sapiens, UniProt Q16288); conditions: at 10 µM
[14] = target: cAMP-dependent protein kinase catalytic subunit alpha (Homo sapiens, UniProt P17612); assay: Selectivity interaction (Kinase panel (Z-LYTE Assay)) EUB0001632a PRKACA; conditions: at 10 µM

Sequence of NT-3 growth factor receptor (Q16288 32-839 limits assumed): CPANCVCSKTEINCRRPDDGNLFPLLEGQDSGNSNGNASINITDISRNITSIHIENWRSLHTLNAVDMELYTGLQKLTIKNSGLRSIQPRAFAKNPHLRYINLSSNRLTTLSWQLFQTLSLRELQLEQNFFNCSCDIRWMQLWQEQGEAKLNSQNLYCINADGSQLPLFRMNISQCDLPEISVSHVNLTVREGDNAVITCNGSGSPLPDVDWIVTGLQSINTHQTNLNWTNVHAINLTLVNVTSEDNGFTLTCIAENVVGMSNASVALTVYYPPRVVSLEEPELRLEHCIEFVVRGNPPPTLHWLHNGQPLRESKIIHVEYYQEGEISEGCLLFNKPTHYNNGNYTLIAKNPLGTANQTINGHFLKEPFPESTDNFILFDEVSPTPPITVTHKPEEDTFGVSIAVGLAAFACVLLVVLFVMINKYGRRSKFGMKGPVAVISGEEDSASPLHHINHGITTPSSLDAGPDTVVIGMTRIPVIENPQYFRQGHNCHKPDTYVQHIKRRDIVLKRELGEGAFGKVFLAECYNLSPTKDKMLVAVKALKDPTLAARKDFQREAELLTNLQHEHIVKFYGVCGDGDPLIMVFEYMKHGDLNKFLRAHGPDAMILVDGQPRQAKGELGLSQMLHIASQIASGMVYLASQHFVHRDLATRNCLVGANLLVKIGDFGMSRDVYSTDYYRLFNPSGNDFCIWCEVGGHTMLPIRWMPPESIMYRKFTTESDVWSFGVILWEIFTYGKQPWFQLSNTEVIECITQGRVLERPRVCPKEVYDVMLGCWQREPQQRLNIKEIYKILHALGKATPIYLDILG
Sequence of Mast/stem cell growth factor receptor Kit (Homo sapiens), P10721 [V559D,V654A] (P10721 whole entry V559D/V654A): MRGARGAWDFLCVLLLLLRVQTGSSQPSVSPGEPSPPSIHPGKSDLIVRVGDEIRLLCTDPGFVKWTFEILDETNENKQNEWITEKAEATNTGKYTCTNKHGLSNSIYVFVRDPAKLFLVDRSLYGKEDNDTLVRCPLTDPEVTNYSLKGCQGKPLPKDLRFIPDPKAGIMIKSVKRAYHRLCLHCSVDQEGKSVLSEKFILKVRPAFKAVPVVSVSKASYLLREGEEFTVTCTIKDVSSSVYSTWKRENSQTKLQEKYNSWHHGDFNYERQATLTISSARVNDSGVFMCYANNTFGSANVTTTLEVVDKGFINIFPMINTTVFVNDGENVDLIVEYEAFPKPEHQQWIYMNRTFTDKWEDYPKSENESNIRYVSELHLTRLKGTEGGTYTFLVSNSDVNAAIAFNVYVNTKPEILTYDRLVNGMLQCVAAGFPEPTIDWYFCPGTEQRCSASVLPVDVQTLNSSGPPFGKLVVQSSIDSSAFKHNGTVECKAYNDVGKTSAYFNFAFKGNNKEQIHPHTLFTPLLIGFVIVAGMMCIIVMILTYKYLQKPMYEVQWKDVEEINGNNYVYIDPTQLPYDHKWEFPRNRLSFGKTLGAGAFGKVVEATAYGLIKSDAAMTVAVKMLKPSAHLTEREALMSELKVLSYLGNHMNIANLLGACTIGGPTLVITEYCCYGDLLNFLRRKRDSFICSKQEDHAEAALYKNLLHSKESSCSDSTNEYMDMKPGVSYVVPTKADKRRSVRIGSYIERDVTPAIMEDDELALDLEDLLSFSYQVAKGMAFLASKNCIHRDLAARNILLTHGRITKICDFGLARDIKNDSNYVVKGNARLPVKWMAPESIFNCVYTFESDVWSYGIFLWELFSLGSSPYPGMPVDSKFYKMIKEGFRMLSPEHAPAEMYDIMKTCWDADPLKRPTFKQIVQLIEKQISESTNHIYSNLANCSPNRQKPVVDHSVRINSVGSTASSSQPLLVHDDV
Sequence of Mast/stem cell growth factor receptor Kit (Homo sapiens), P10721 [V559D,T670I] (P10721 whole entry V559D/T670I): as the sequence (P10721 whole entry V559D/V654A) above, with A654V, T670I counted along it
Sequence of Tyrosine-protein kinase CSK (Homo sapiens) (P41240 2-450 limits assumed): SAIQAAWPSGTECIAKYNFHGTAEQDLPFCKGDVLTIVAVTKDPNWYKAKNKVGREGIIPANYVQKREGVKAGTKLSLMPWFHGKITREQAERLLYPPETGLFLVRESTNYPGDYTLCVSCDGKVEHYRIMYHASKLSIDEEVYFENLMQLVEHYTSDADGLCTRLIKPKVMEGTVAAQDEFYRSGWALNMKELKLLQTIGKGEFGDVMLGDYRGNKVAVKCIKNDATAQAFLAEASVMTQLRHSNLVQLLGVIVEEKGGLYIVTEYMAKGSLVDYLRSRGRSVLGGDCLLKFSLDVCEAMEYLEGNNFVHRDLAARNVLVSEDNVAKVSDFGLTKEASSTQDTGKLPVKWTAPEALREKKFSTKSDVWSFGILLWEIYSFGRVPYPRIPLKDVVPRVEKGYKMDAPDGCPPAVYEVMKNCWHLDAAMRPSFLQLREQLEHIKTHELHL
Sequence of Mast/stem cell growth factor receptor Kit (Homo sapiens), P10721 [A829P] (P10721 whole entry A829P): as the sequence (P10721 whole entry V559D/V654A) above, with D559V, A654V, A829P counted along it
Sequence of Mast/stem cell growth factor receptor Kit (P10721 whole entry): as the sequence (P10721 whole entry V559D/V654A) above, with D559V, A654V counted along it
Sequence of Mast/stem cell growth factor receptor Kit (Homo sapiens), P10721 [L576P] (P10721 whole entry L576P): as the sequence (P10721 whole entry V559D/V654A) above, with D559V, L576P, A654V counted along it
Sequence of Mast/stem cell growth factor receptor Kit (Homo sapiens), P10721 [D816V] (P10721 whole entry D816V): as the sequence (P10721 whole entry V559D/V654A) above, with D559V, A654V, D816V counted along it
Sequence of Mast/stem cell growth factor receptor Kit (Homo sapiens), P10721 [D816H] (P10721 whole entry D816H): as the sequence (P10721 whole entry V559D/V654A) above, with D559V, A654V, D816H counted along it
Sequence of Mast/stem cell growth factor receptor Kit (Homo sapiens), P10721 [V559D] (P10721 whole entry V559D): as the sequence (P10721 whole entry V559D/V654A) above, with A654V counted along it

Nc1cnc(N2CCc3cc(S(=O)(=O)Nc4c(F)cc(Cl)cc4F)cc(N4CCCC4=O)c32)nc1 [TP-020n]
% of control [1]: 100%
% of control [2]: 100%
% of control [3]: 100%
% of control [4]: 100%
% of control [5]: 100%
% of control [6]: 83%
% of control [7]: 100%
% of control [8]: 100%

CN(C(=O)c1cnn2cccnc12)c1cc2c(cc1N1CCOCC1)C(=O)N(C[C@@H](F)C(C)(C)O)C2
dTM [9]: 0.4 K

CC[C@@H]1[C@H](F)C(=O)N[C@@H]1COc1nccc2cc(C(N)=O)c(OC)cc12 [ZIMLOVISERTIB]
% of inhibition [10]: 2.3%
% of inhibition [11]: 5.87%

CCC(=O)N1CCN(c2ccc(-n3c(=O)ccc4cnc5ccc(-c6cnc7ccccc7c6)cc5c43)cc2C(F)(F)F)CC1
% of control [12]: 100%

Cc1cc([C@@H](C)Nc2ccccc2C(=O)O)c2nc(N3CCOCC3)cc(=O)n2c1 [AZD-6482]
% of control [13]: 98%

Cn1cc(-n2cnc3c(NCc4nc5cc(Cl)c(Cl)cc5[nH]4)nc(N4CCOCC4)nc32)cn1
% of control [14]: 1.33%
